Flow score data for 1 compound are collected here from patent US20090142395A1, “DEFERASIROX PHARMACEUTICAL COMPOSITIONS” (priority 2007, published 2009).

A short description of this data set: Flow properties of co-milled blends, assessed visually. The class given is physicochemical. The settings on record: visual score between 1 and 6, where 6 is a free-flowing powder. As for the experimental part: Flow properties were assessed visually, and given a score between 1 and 6, where 6 is a free-flowing powder.

`O=C(O)c1ccc(-n2nc(-c3ccccc3O)nc2-c2ccccc2O)cc1` [Deferasirox raw material, 4-[3,5-bis(2-hydroxyphenyl)-[1,2,4]triazol-1-yl]benzoic acid] registered a Flow score of 1.
